In US4391824A, “Ureylenebis (hydroxy naphthalenesulfonic acids)” (American Cyanamid Company, priority 1981, dated 1983):
“And” between values parts separate entries of the source, which are not always exact repeats. Equal values may be shown once. Where a name gives a salt, the structure may show the parent alone.

What was measured:
[1] = target: T1, human skin fibroblast collagenase (Homo sapiens, UniProt P03956); assay: Collagenase Assay, Test Code 006 (degradation of 14C-labeled native collagen fibrils); type: biochemical; conditions: 16 hours at 37° C., based on 0% value for enzyme control; for inhibition at 30 µg/mL / % Inhibition of Collagenase: test concentration 30 μg/ml
T1 construct: endogenous in cells; host or cells: human skin fibroblasts (from the enzyme's name; preparation not described)
T1 sequence (P03956 100-469): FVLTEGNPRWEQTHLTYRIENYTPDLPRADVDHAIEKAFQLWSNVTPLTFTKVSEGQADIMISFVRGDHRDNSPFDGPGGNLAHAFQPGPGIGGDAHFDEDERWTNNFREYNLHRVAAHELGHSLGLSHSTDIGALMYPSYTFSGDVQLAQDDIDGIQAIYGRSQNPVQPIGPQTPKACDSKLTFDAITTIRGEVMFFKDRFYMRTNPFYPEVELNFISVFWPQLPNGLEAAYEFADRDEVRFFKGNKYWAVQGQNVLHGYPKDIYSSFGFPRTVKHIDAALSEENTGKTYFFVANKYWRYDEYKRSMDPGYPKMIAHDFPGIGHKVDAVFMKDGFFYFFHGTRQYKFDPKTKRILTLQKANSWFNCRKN
Procedure: Collagenase assays were performed by a modification of the method of Harper, et. al., Biochem. 10: 3035 (1971). In a typical assay (total volume of 0.45 ml), 100 μl of the activated enzyme was added to the 14 C-labeled collagen fibrils (250 μl) followed by 100 μl of 50 mM cacodylate, pH 7.4, containing 5 mM calcium chloride. After incubation at 37° C. for 16 hours, the tubes were centrifuged in a Beckman microfuge for five minutes at full speed. An aliquot (200 μl) of the supernatant, representing collagenase digestion products of the fibril, was assayed for radioactivity. The effect of the test compound on collagen degradation by collagenase was examined as follows:
Varying concentrations of the test compound (in distilled water or dimethylacetamide) were added to the assay tubes containing active collagenase (total volume 450 μl) and after 16 hours the amount of radioactivity in the supernatant was determined. Appropriate blanks and trypsin controls were run in parallel.
The activities are expressed as % inhibition (lowering) of collagenase activity, i.e., based on the 0% value for the enzyme control.

corneal ulcerations = conditions: alkali burned rabbit, eye; cited from earlier work
collagenase = conditions: collagenase, or a proteinase contaminant in the collagenase preparation; cited from earlier work
corneal ulceration = conditions: human; cited from earlier work

O=C(Nc1cccc(C(=O)Nc2cc3c(O)cc(S(=O)(=O)O)cc3cc2S(=O)(=O)O)c1)Nc1cccc(C(=O)Nc2cc3c(O)cc(S(=O)(=O)O)cc3cc2S(=O)(=O)O)c1 [3,3'-[Ureylenebis(m-phenylenecarbonylimino)]bis[5-hydroxy-2,7-naphthalenedisulfonic acid]tetrasodium salt]
inhibition at 30 µg/mL [1]: 41%

Cc1c(NC(=O)Nc2cccc(C(=O)Nc3cc(S(=O)(=O)O)cc4cc(S(=O)(=O)O)cc(O)c34)c2C)cccc1C(=O)Nc1cc(S(=O)(=O)O)cc2cc(S(=O)(=O)O)cc(O)c12 [4,4'-[Ureylenebis(2-methyl-3,1-phenylenecarbonylimino)]bis[5-hydroxy-2,7-naphthalenedisulfonic acid]tetrasodium salt]
% Inhibition of Collagenase [1]: 45%
inhibition at 30 µg/mL [1]: 32.2%

Cc1cc(C(=O)Nc2cc(S(=O)(=O)O)cc3cc(S(=O)(=O)O)cc(O)c23)ccc1NC(=O)Nc1ccc(C(=O)Nc2cc(S(=O)(=O)O)cc3cc(S(=O)(=O)O)cc(O)c23)cc1C [4,4'-[Ureylenebis(3-methyl-p-phenylenecarbonylimino)]bis[5-hydroxy-2,7-naphthalenedisulfonic acid]tetrasodium salt]
inhibition at 30 µg/mL [1]: 78%

Cc1ccc(NC(=O)Nc2ccc(C)c(C(=O)Nc3cc(S(=O)(=O)O)cc4cc(S(=O)(=O)O)cc(O)c34)c2)cc1C(=O)Nc1cc(S(=O)(=O)O)cc2cc(S(=O)(=O)O)cc(O)c12 [4,4'-[Ureylenebis(6-methyl-3,1-phenylenecarbonylimino)]bis[5-hydroxy-2,7-naphthalenedisulfonic acid]tetrasodium salt]
% Inhibition of Collagenase [1]: 36% and 35%
inhibition at 30 µg/mL [1]: 50%
inhibition at 60 µg/mL ([1]; test concentration 60 μg/ml): 39%

O=C(Nc1cccc(C(=O)Nc2cc(S(=O)(=O)O)cc3cc(S(=O)(=O)O)cc(O)c23)c1)Nc1cccc(C(=O)Nc2cc(S(=O)(=O)O)cc3cc(S(=O)(=O)O)cc(O)c23)c1 [4,4'[Ureylenebis(m-phenylenecarbonylimino)]bis[5-hydroxy-2,7-naphthalenedisulfonic acid]tetrasodium salt]
inhibition at 30 µg/mL [1]: 41%

O=C(Nc1ccc(C(=O)Nc2cccc3cc(S(=O)(=O)O)cc(O)c23)c(S(=O)(=O)O)c1)Nc1ccc(C(=O)Nc2cccc3cc(S(=O)(=O)O)cc(O)c23)c(S(=O)(=O)O)c1 [5,5'-[Ureylenebis(2-sulfo-4,1-phenylenecarbonylimino)]bis[4-hydroxy-2-naphthalenesulfonic acid]tetrasodium salt]
inhibition at 30 µg/mL [1]: 58%

O=C([O-])CN(CCN(CC(=O)[O-])CC(=O)[O-])CC(=O)[O-].[Ca+2].[Ca+2] [Calcium ethylenediaminetetraacetate]
frequency of ulceration (corneal ulcerations): reduce the frequency of ulceration

Cc1ccc(C(=O)Nc2ccc(S(=O)(=O)O)c3cc(S(=O)(=O)O)cc(S(=O)(=O)O)c23)cc1NC(=O)c1cccc(NC(=O)Nc2cccc(C(=O)Nc3cc(C(=O)Nc4ccc(S(=O)(=O)O)c5cc(S(=O)(=O)O)cc(S(=O)(=O)O)c45)ccc3C)c2)c1 [Suramin]
inhibition of the activity of collagenase (collagenase): not inhibiting the action of collagenase

CC(=O)N[C@@H](CS)C(=O)O [acetylcysteine]
frequency of ulceration (corneal ulcerations): reduce the frequency of ulceration
effectiveness in treatment of acute and chronic corneal ulceration (corneal ulceration): effective

N[C@@H](CS)C(=O)O [cysteine]
effectiveness in treatment of acute and chronic corneal ulceration (corneal ulceration): effective

Cc1cc(-c2ccc(/N=N/c3c(S(=O)(=O)O)cc4cc(S(=O)(=O)O)cc(N)c4c3O)c(C)c2)ccc1/N=N/c1c(S(=O)(=O)O)cc2cc(S(=O)(=O)O)cc(N)c2c1O [trypan blue]
inhibition of the activity of collagenase (collagenase): inhibiting the activity of collagenase
